According to publication PMC8787488, “Two-Metal Ion-Dependent Enzymes as Potential Antiviral Targets in Human Herpesviruses” (mBio, 2022):

Key:
His-UL30ΔN42 = molecular target: T1, His-UL30ΔN42 (Human alphaherpesvirus 1 strain KOS, UniProt P04292); test: gel-based primer extension polymerase assay; format: biochemical; details: 50 nM enzyme, dNTPs, 10 mM MgCl2, pH 7.6, 37°C
T1 construct: gene UL30; His-tagged, N-terminal 42 residues deleted; gift from Donald Coen; no UL42 mentioned

UL12 = molecular target: T2, UL12 (Human alphaherpesvirus 1 strain 17, UniProt P04294); test: PicoGreen dsDNA exonuclease assay; format: biochemical; details: 10 nM UL12, 1 nM linearized pUC19 DNA, 1 mM MgCl2, pH 8.2, 37°C
T2 construct: full-length alkaline nuclease, purified from baculovirus-infected Sf9 cells
T2 sequence (P04294 whole entry, looked up): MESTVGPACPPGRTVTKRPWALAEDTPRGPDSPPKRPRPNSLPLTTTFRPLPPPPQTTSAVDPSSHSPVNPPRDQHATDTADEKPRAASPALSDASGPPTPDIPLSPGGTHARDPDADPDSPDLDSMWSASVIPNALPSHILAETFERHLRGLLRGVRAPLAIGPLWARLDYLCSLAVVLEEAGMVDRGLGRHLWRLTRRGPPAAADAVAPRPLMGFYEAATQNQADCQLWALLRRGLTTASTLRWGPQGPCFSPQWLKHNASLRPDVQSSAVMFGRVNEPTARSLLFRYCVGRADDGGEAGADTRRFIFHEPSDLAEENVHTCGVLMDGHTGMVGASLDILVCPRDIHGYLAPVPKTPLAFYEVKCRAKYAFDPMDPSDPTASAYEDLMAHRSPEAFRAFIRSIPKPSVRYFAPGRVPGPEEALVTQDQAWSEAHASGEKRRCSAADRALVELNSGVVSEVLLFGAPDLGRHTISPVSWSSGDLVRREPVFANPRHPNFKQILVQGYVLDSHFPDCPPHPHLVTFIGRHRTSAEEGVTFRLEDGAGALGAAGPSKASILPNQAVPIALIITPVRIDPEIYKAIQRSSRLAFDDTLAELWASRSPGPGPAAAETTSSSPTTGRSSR

ICP8Δ60 = molecular target: T3, ICP8Δ60 (Human alphaherpesvirus 1 strain KOS, UniProt P17470); test: thermal shift, nanoDSF (Tycho NT.[…]); format: binding; details: 20x molar excess of compound to protein, 5 mM MgCl2, pH 7.5, without ssDNA
T3 construct: gene DBP; 60-residue deletion; source not described
T3 sequence (P17470 1-1136, stated change not applied): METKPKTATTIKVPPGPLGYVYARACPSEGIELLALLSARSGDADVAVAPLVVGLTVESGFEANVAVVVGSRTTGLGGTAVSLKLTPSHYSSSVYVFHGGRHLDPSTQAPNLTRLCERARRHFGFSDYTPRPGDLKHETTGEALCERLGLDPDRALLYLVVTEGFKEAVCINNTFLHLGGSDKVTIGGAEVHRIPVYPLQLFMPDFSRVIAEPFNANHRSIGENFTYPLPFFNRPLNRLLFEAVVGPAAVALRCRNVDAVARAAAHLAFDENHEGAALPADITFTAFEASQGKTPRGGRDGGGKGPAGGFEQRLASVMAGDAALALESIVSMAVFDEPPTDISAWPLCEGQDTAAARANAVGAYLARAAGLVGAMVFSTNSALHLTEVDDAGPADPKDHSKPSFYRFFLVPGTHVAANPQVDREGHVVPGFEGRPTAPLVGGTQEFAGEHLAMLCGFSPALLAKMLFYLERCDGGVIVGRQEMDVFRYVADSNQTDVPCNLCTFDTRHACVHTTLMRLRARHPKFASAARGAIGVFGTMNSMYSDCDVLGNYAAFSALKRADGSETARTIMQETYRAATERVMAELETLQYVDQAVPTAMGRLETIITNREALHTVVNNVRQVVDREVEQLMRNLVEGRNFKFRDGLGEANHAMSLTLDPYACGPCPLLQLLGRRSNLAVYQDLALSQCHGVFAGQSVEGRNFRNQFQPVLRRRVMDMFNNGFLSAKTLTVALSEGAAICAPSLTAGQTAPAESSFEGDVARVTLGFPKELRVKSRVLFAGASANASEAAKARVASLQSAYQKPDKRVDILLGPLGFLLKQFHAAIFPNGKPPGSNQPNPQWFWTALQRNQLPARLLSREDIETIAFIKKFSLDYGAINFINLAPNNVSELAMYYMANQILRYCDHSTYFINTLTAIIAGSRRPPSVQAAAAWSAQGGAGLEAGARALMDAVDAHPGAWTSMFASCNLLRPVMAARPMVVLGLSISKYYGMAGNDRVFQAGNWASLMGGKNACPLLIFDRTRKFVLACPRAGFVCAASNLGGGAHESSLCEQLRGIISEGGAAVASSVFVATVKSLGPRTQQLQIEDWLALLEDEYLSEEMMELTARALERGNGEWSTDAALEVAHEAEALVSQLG

UL15C = molecular target: T4, UL15C (Human alphaherpesvirus 1 strain 17, UniProt P04295); test: dual-probe fluorescence nuclease assay; format: biochemical
T4 construct: gene TRM3; C-terminal nuclease domain, residues 471 to 736, pET28b(+), from E. coli BL21(DE3); without UL28 and UL33
T4 sequence (P04295 471-735): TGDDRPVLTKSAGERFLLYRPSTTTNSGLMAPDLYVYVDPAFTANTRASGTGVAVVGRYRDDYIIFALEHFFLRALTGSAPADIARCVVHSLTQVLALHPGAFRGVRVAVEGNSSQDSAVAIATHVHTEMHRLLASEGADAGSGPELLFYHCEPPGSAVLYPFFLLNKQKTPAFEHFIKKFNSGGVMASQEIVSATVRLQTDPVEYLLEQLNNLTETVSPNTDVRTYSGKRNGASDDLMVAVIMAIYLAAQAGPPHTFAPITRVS

T1 sequence (P04292 43-1235, stated change not applied): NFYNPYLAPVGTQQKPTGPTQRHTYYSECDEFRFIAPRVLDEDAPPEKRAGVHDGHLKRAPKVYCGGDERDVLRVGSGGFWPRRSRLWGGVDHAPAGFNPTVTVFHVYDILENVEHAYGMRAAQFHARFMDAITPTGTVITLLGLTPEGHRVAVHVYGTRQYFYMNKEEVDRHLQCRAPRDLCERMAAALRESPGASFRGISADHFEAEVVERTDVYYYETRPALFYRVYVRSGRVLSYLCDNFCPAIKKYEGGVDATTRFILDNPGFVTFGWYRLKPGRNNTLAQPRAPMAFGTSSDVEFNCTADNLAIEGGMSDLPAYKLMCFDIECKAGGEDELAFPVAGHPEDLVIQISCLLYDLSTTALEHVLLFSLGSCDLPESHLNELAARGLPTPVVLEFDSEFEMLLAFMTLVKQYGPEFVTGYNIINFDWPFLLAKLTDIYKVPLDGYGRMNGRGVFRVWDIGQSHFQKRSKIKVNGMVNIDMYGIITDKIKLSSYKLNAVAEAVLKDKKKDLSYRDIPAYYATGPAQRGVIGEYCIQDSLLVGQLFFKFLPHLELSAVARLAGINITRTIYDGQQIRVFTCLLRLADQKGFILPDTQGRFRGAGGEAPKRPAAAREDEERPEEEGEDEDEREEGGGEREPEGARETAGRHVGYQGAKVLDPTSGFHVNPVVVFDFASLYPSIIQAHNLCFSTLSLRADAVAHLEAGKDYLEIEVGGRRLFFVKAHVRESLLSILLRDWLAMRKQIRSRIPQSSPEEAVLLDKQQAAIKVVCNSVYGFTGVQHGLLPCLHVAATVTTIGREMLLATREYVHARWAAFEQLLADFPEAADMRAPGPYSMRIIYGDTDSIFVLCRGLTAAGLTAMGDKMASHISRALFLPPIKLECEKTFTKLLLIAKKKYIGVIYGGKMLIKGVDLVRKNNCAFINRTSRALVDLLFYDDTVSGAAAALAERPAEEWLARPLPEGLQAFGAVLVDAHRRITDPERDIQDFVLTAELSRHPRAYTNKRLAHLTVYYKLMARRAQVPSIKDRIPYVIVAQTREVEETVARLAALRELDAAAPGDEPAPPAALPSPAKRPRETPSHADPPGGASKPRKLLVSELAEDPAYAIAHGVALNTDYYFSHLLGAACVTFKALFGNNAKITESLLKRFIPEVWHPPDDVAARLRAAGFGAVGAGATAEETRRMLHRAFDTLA

Row | SMILES | inhibition at 20 μM (His-UL30ΔN42) | % inhibition at 20 μM (UL12) | Ti (ICP8Δ60) | inhibition at 12.5 µM (UL15C) [%]
1 | O=C(Nc1ccc(Br)cc1)c1ccc2cccnc2c1O [AK-157] | only AK-157 and the known polymerase inhibitor phosphonoacetic acid (PAA) showed strong inhibition | strong inhibition was observed for PPG, AK-157, and AK-166 | – | –
2 | O=c1c(O)cccc2cc(O)c(O)c(O)c12 [purpurogallin] | – | strong inhibition was observed for PPG, AK-157, and AK-166 | RAL had no appreciable interactions with ICP8, while PPG showed a modest effect | –
3 | CC(C)c1ccc(CNC(=O)c2ccc3cccnc3c2O)cc1 [AK-166] | – | strong inhibition was observed for PPG, AK-157, and AK-166 | – | –
4 | Cc1nnc(C(=O)NC(C)(C)c2nc(C(=O)NCc3ccc(F)cc3)c(O)c(=O)n2C)o1 [raltegravir] | – | – | – | ~80
